From ChEMBL document CHEMBL5532652, “Design and synthesis of pterostilbene derivatives bearing triazole moiety that might treat DSS-induced colitis in mice through modulation of NF-κB/MAPK signaling pathways” (Eur J Med Chem, 2024)
Activity calls are given as the source filed them. No cut-off for these calls is given here.

Key:
[1] = Acute toxicity in female C57BL/6 mouse assessed as anorexia at 1000 to 2000 mg/kg, po measured for 14 days; format: organism-based; conditions: in vivo, 336 h, dose 1000-2000 mg/kg, time 14 day
[2] = Acute toxicity in C57BL/6 mouse assessed as lung damage at 1000 mg/kg, po measured for 14 days; format: organism-based; conditions: in vivo, 336 h, time 14 day
[3] = test system: Mus musculus; experiment: Anti-inflammatory activity against DSS-induced acute colitis C57BL/6J mouse model assessed as reduction in TNF-alpha level in colon at 10 to 20 mg/kg, po measured for 7 days by ELISA analysis; format: functional, organism-based; conditions: dose 10-20 mg/kg, time 7.0 day
[4] = test system: RAW264.7; experiment: Anti-inflammatory activity against LPS-stimulated mouse RAW264.7 cells assessed as reduction in LPS-induced COX-2 level preincubated with compound for 1 hr followed by LPS stimulation and measured after 24 hrs by Western blot analysis; format: functional, cell-based; conditions: dose 0.5-2 µM, time 25.0 hrs
[5] = test system: RAW264.7; experiment: Anti-inflammatory activity in LPS-stimulated mouse RAW264.7 cells assessed as reduction in p38 level at 0.5 to 2 uM preincubated with compound for 1 hr followed by LPS stimulation and measured after 30 mins by Western blot analysis; format: functional, cell-based; conditions: dose 0.5-2 µM, time 1.5 hrs
[6] = test system: Mus musculus; experiment: Anti-inflammatory activity against DSS-induced acute colitis C57BL/6J mouse model assessed as reduction in IL-1beta level in colon at 10 to 20 mg/kg, po measured for 7 days by ELISA analysis; format: functional, organism-based; conditions: dose 10-20 mg/kg, time 7.0 day
[7] = test system: RAW264.7; experiment: Anti-inflammatory activity in mouse RAW264.7 cells assessed as inhibition of LPS-induced NO production at 10 uM incubated pretreated with compound for 1 hr followed by LPS-induction and measured after 24 hrs by Griess reagent based assay relative to control; format: functional; conditions: time 25 hrs
[8] = test system: RAW264.7; experiment: Anti-inflammatory activity in LPS-stimulated mouse RAW264.7 cells assessed as reduction in ERK level at 0.5 to 2 uM preincubated with compound for 1 hr followed by LPS stimulation and measured after 30 mins by Western blot analysis; format: functional, cell-based; conditions: dose 0.5-2 µM, time 1.5 hrs
[9] = test system: RAW264.7; experiment: Anti-inflammatory activity against LPS-stimulated mouse RAW264.7 cells assessed as reduction in LPS-induced iNOS level preincubated with compound for 1 hr followed by LPS stimulation and measured after 24 hrs by Western blot analysis; format: functional, cell-based; conditions: dose 0.5-2 µM, time 25.0 hrs
[10] = Acute toxicity in female C57BL/6 mouse assessed as hyperactivity at 1000 to 2000 mg/kg, po measured for 14 days; format: organism-based; conditions: in vivo, 336 h, dose 1000-2000 mg/kg, time 14 day
[11] = Cytotoxicity against mouse RAW264.7 cells assessed as reduction in cell viability at 20 uM incubated for 24 hrs in absence of LPS by MTT assay; format: toxicity, cell-based
[12] = Acute toxicity in female C57BL/6 mouse assessed as lethargy at 1000 to 2000 mg/kg, po measured for 14 days; format: organism-based; conditions: in vivo, 336 h, dose 1000-2000 mg/kg, time 14 day
[13] = test system: RAW264.7; experiment: Anti-inflammatory activity in LPS-stimulated mouse RAW264.7 cells assessed as inhibition of JNK phosphorylation preincubated with compound for 1 hr followed by LPS stimulation and measured after 30 mins by Western blot analysis; format: functional, cell-based; conditions: dose 0.5-2 µM, time 1.5 hrs
[14] = test system: Mus musculus; experiment: Anti-inflammatory activity against DSS-induced acute colitis C57BL/6J mouse model assessed as reduction in IL-6 level in colon at 10 to 20 mg/kg, po measured for 7 days by ELISA analysis; format: functional, organism-based; conditions: dose 10-20 mg/kg, time 7.0 day
[15] = Acute toxicity in male C57BL/6 mouse assessed as hyperactivity at 1000 to 2000 mg/kg, po measured for 14 days; format: organism-based; conditions: in vivo, 336 h, dose 1000-2000 mg/kg, time 14 day
[16] = Acute toxicity in C57BL/6 mouse assessed as heart damage at 1000 mg/kg, po measured for 14 days; format: organism-based; conditions: in vivo, 336 h, time 14 day
[17] = Acute toxicity in female C57BL/6 mouse assessed as effect on body weight gain at 1000 to 2000 mg/kg, po measured for 14 days; format: organism-based; conditions: in vivo, 336 h, dose 1000-2000 mg/kg, time 14 day
[18] = Acute toxicity in male C57BL/6 mouse assessed as lethargy at 1000 to 2000 mg/kg, po measured for 14 days; format: organism-based; conditions: in vivo, 336 h, dose 1000-2000 mg/kg, time 14 day
[19] = test system: Mus musculus; experiment: Anti-inflammatory activity against DSS-induced acute colitis C57BL/6J mouse model assessed as decrease in goblet cells in colon at 10 to 20 mg/kg, po measured for 7 days; format: functional, organism-based; conditions: dose 10-20 mg/kg, time 7.0 day
[20] = test system: RAW264.7; experiment: Anti-inflammatory activity in LPS-stimulated mouse RAW264.7 cells assessed as inhibition of p38 phosphorylation preincubated with compound for 1 hr followed by LPS stimulation and measured after 30 mins by Western blot analysis; format: functional, cell-based; conditions: dose 0.5-2 µM, time 1.5 hrs
[21] = Cytotoxicity against mouse RAW264.7 cells assessed as reduction in cell viability at 20 uM incubated for 24 hrs in presence of LPS by MTT assay; format: toxicity, cell-based
[22] = test system: RAW264.7; experiment: Anti-inflammatory activity in LPS-stimulated mouse RAW264.7 cells assessed as inhibition of IkappaB phosphorylation at 0.5 to 2 uM preincubated with compound for 1 hr followed by LPS stimulation and measured after 30 mins by Western blot analysis; format: functional, cell-based; conditions: dose 0.5-2 µM, time 1.5 hrs
[23] = Acute toxicity in female C57BL/6 mouse assessed as effect on fur laxity at 1000 to 2000 mg/kg, po measured for 14 days; format: organism-based; conditions: in vivo, 336 h, dose 1000-2000 mg/kg, time 14 day
[24] = test system: RAW264.7; experiment: Anti-inflammatory activity in LPS-stimulated mouse RAW264.7 cells assessed as inhibition of ERK phosphorylation preincubated with compound for 1 hr followed by LPS stimulation and measured after 30 mins by Western blot analysis; format: functional, cell-based; conditions: dose 0.5-2 µM, time 1.5 hrs
[25] = test system: Mus musculus; experiment: Anti-inflammatory activity against DSS-induced acute colitis C57BL/6J mouse model assessed as reduction in MPO level in colon at 10 to 20 mg/kg, po measured for 7 days; format: functional, organism-based; conditions: dose 10-20 mg/kg, time 7.0 day
[26] = test system: RAW264.7; experiment: Anti-inflammatory activity in mouse RAW264.7 cells assessed as inhibition of LPS-induced NO production incubated pretreated with compound for 1 hr followed by LPS-induction and measured after 24 hrs by Griess reagent based assay; format: functional, cell-based
[27] = test system: Mus musculus; experiment: Anti-inflammatory activity against DSS-induced acute colitis C57BL/6J mouse model assessed as disappearance of crypt foci in colon at 10 to 20 mg/kg, po measured for 7 days; format: functional, organism-based; conditions: dose 10-20 mg/kg, time 7.0 day
[28] = test system: Mus musculus; experiment: Anti-inflammatory activity against DSS-induced acute colitis C57BL/6J mouse model assessed as decrease in colon length at 10 to 20 mg/kg, po measured for 7 days; format: functional, organism-based; conditions: dose 10-20 mg/kg, time 7.0 day
[29] = Toxicity in C57BL/6 mouse assessed as reduction in disease index at 20 mg/kg, po measured for 7 days; format: organism-based; conditions: in vivo, 168 h, time 7 day
[30] = Acute toxicity in male C57BL/6 mouse assessed as effect on body weight gain at 1000 to 2000 mg/kg, po measured for 14 days; format: organism-based; conditions: in vivo, 336 h, dose 1000-2000 mg/kg, time 14 day
[31] = test system: RAW264.7; experiment: Anti-inflammatory activity against LPS-stimulated mouse RAW264.7 cells assessed as downregulation of LPS-induced COX-2 expression at 0.5 to 2 uM preincubated with compound for 1 hr followed by LPS stimulation and measured after 24 hrs by Western blot analysis; format: functional, cell-based; conditions: dose 0.5-2 µM, time 25.0 hrs
[32] = Acute toxicity in female C57BL/6 mouse assessed as effect on body weight loss at 1000 to 2000 mg/kg, po measured for 14 days; format: organism-based; conditions: in vivo, 336 h, dose 1000-2000 mg/kg, time 14 day
[33] = Acute toxicity in C57BL/6 mouse assessed as liver damage at 1000 mg/kg, po measured for 14 days; format: organism-based; conditions: in vivo, 336 h, time 14 day
[34] = Acute toxicity in male C57BL/6 mouse assessed as effect on body weight loss at 1000 to 2000 mg/kg, po measured for 14 days; format: organism-based; conditions: in vivo, 336 h, dose 1000-2000 mg/kg, time 14 day

Structure (SMILES): C=CCOc1ccc(/C=C/c2cc(OC)cc(OC)c2-c2cnnn2C(=O)NCCCl)cc1
- Activity [1]: Non-Toxic
- Activity [2]: Non-Toxic
- Activity [3]: Active
- Activity [4]: Dose-Dependent Effect
- Activity [5]: Active
- Activity [6]: Active
- inhibition at 10 µM [7]: 98%
- Activity [8]: Active
- Activity [9]: Dose-Dependent Effect
- Activity [10]: Non-Toxic
- IC50 at 24 h [11]: > 50 µM
- Activity [12]: Non-Toxic
- Activity [13]: Dose-Dependent Effect
- Activity [14]: Active
- Activity [15]: Non-Toxic
- Activity [16]: Non-Toxic
- Activity [17]: Non-Toxic
- Activity [18]: Non-Toxic
- Activity [19]: Active
- Activity [20]: Dose-Dependent Effect
- IC50 at 24 h [21]: > 50 µM
- Activity [22]: Active
- Activity [23]: Non-Toxic
- Activity [24]: Dose-Dependent Effect
- Activity [25]: Active
- IC50 [26]: 0.6 µM
- Activity [27]: Active
- Activity [28]: Active
- Activity [29]: Non-Toxic
- Activity [30]: Non-Toxic
- Activity [31]: Active
- Activity [32]: Non-Toxic
- Activity [33]: Non-Toxic
- Activity [34]: Non-Toxic
